Reference: patent US20110059916A1, “Methods and Compositions for Inducing Torpor in a Subject” (priority 2006, published 2011)

Tests used:
mClps = mClps (procolipase) expression after injection into light-dark mice, Northern blot / RT-PCR; assay type: in vivo, mouse; conditions: for mClps expression in the liver: injected into light-dark mice, Northern blot
Description: Northern blot and RT-PCR analysis: Tissues were collected and frozen in liquid nitrogen and stored at about -80 C. The total RNA was isolated from mouse livers following standard procedures.^31 Twenty micrograms of total RNA was separated by electrophoresis and transferred onto a nylon membrane. The blots were hybridized with ^32P-labeled cDNA probes, washed and exposed to X-ray film as previously described.^30 Colipase probe was the complete cDNA (e.g., Genbank No: BC042935); the Gapdh probe was the Pst I fragment of rat Gapdh cDNA.^32 The primer pair used to measure colipase expression was SEQ ID NO:1 [NT] and SEQ ID NO:2 [NT], The primer pair used to measure Gapdh expression as an internal control was SEQ ID NO:3 [NT] and SEQ ID NO:4 [NT] 720 by probe for mouse pancreatic lipase related protein 2 (mPlrp2) was generated by RT-PCR using oligos LipaseF SEQ ID NO:5 [NT] and […] NO:6 [NT] from liver mRNA.

[1] = assay type: in vivo, mouse
Method: (§1) They were immediately put into individual 500 ml pre-cooled beakers placed in a chamber at 4° C. […] CBT of the mice was monitored by a digital thermometer (Fisher Scientific, USA, catalog 15-077-8) via a micro stainless steel probe (1 mm) placed 1 cm into the rectal opening of the mouse. Temperature readings were taken at 15-20 sec after insertion of the probe. Once the CBT dropped to 15±1.0° C., mice were then transferred to a regular mouse cage with bedding and kept in an environment chamber at a temperature set at 14±0.5° C. or 15±0.5° C. Mice in SA were visually monitored for arousal. Once arousal was apparent, the animals were returned to standard housing. After 12 h of SA, mice were returned to 20-22° C. AET housing with food and water given ad libitum. For 4 consecutive days after SA, food intakes were determined by weight differential of fresh chow and water after every 24 h at ZT2. Body weight was measured at every ZT2. Respiration rate was determined by placing a mouse inside an open-end 50 ml tube and the number of breaths were determined by counting the number of intakes and exhales over 10 sec intervals.
AET for about 60 min. Markedly different behavioral responses to 4° C. AET were observed. […] In contrast, mice injected with 5′-AMP maintained a relaxed posture and no apparent shivering. […] As CBT dropped below 31° C., the mice retained a considerable cognitive response to tactile stimuli indicating a state of torpor (T). However, when CBT dropped to 18-22° C., the mice lost much of their locomotor mobility but had the ability to reverse flip (RF) to right themselves when they were placed on their backs or sides. When CBT dropped below 17° C., this RF ability was lost and the animals entered a state of SA. When laid on their sides or backs, the mice appeared in a suspended animation state with out-stretched limbs and low respiration rates.
These observations raised questions concerning the relative contribution of 5′-AMP, AET and the CBT in mediating SA. To address these issues, the relationship between 5′-AMP and SA was investigated. […] AET for about 60 min.
AET to await spontaneous arousal.
To identify the driver of SA, the relationship between CBT of mice and the AET was investigated. Once in SA, mice were maintained either at 14±0.5° C. or 15±0.5° C. AET. […] Next, the arousal responses of mice kept at 14±0.5° C. or 15±0.5° C. AET were compared. The majority of mice maintained at 15±0.5° C. AET could spontaneously aroused from SA (FIG. 35b). […] When these mice were subsequently placed at a higher AET, they aroused spontaneously and could enter the S stage. A period of SA longer than 14 h was associated with a decline in the ability of the animal to enter the S stage after arousal by warming. […] The underlying cause(s) of death remains unclear.
Together, the foregoing studies indicate that CBT is a major driver of SA in direct response to a low AET. To obtain additional support for this conclusion, the effects of AET on the recovery rate from SA was investigated. Groups of mice (n=4) in SA with a CBT of about 15° C. were transferred into environments with increasing AET's. The time required for each animal's CBT to return to 37° C. was measured (FIG. 35c). A direct correlation between the increase in AET and the recovery rate from SA was seen. To determine whether there were any long-term negative effects from SA, food intake and body weight were measured for several days as an indirect assessment of health status. Mice (n=4) that exited SA spontaneously were used for these studies.

[2] = Heart rate at high concentrations; assay type: in vivo
[3] = Blood glucose after 5′-AMP injection; assay type: in vivo, mouse; conditions: injections
[4] = HPLC analysis of adenylates in blood, liver and muscle during SA; conditions: mice in SA given a second injection, red blood cells, 2 hours later
Method: HPLC analysis for adenine nucleotides: Blood was rapidly removed from mice and frozen in liquid Nitrogen. Nucleotides were extracted from frozen samples using about 0.4 N perchloric acid as previously described.^35 Briefly, about 425 μl of ice-cold about 0.4 N perchloric acid was added to frozen blood samples and mixed. After about 10 μl was removed for protein determination, the remainder was centrifuged at about 14,000×g for about 10 minutes at about 4° C. The supernatant (e.g., 305 μl) was transferred to a clean tube, neutralized with about 178 μl of about 0.6 M KHCO3/about 0.72 M KOH and acidified with about 55 μl of about 0.18 M ammonium phosphate solution (pH 5.1) and one drop of dilute phosphoric acid. The samples were centrifuged and the supernatants were stored at about −80° C. for analysis. Blood extracts and adenine nucleotides ATP, ADP, AMP, c-AMP and adenosine (e.g., from Sigma, MO, USA) were separated and quantified using reversed-phase HPLC (e.g., Waters, Millipore Corp., Bedford, Mass.) analysis on a Partisphere bonded phase reverse phase C18 cartridge column at a flow rate of 1.5 ml/minutes.^36 The mobile phase was 0.02 M NH4H2PO4, pH 5.1, with a superimposed methanol gradient: about 0% for about 0-4 minutes, about 0-8% for about 4-6 minutes, about 8-20% for about 6-8 minutes, and about 20% for about 8-18 minutes.

[5] = Daily injection of 5′-AMP into morbid obese Ob/Ob mice: body weight and food intake; assay type: in vivo; conditions: Ob/Ob mouse, daily injection 5 then 2.5 umol/gbw, compared with saline
Description: This was then decrease to 2.5 umol/gbw for the rest of the studies.

[6] = Serum glucose and liver procolipase expression during SA and arousal; assay type: in vivo, mouse
Method: as §1, with “Experimental Procedures. Each mouse was injected intraperitoneally (IP) with the appropriate dosages of 5'-AMP (Sigma catalog# […]) dissolved in phosphate buffered saline. They were” for “They were”, “15±0.5° C. […] CBT. Mice in” for “15±0.5° C. Mice in”, “given ad labitum. For 4” for “given ad libitum. For 4”, “fresh chow every 24” for “fresh chow and water after every 24”, “sec intervals. These studies were carried out under institutionally approved animal protocol HSC-AWC 04-022. Analysis of serum glucose sample from mice at 2-3 h into SA was about 60% higher than control animals with CBT of 37° C. However, the serum blood glucose level drops to 40% below control animals at spontaneous arousal. […] A decline in blood glucose level can be reversed by increasing gluconeogenesis and reduced glucose need of major organs through β-oxidation of fatty acids. […] Liver RNA obtained from mice in normal state, SA, arousal by rewarming and spontaneous arousal was analyzed for procolipase expression by Northern blot analysis. […]” for “sec intervals.”

AMPK = conditions: rat muscle, via AMPK; cited from earlier work
[7] = cited from earlier work
[8] = IP, above 0.25 mg/gbw, chamber at 4° C.
[9] = mouse, 4° C. environment for the cooling phase

In the case of `Nc1ncnc2c1ncn2[C@@H]1O[C@H](COP(=O)(O)O)[C@@H](O)[C@H]1O` [5′-AMP, 5′-adenosine monophosphate], the CBT after injection (high dose, from about 37° C., during about the first hour, ambient room temperature 24° C.) is reported as “about 27 °C”, the “adverse effects on the torpid mice” value (mouse, in vivo) is reported as “No apparent adverse effects” and the length of torpor (various dosages, wild type mice) is reported as “dependent on the dosage”. The “mClps expression in peripheral tissues” value (mClps; RT-PCR) was “detected in all peripheral tissues sampled except the brain”, the “mClps expression in the liver” value (mClps) was “induced mClps expression” and the “length of SA as a function of 5′-AMP dose” value ([1]; 0.25 to 1.5 mg/gbw, maintained at 15±0.5° C. AET until spontaneous arousal) was “considerable overlap in the arousal time”. The “effective dosage (ED50) that induced at least 50% of the mice to enter SA” value ([1]; IP, 4° C. AET for about 60 min, CBT reduction to at least 15° C.) was 0.125 mg/gbw, the CBT reached [1, 8] was 15±1.0 °C and the thermo-regulatory responses [1, 8] was “blocked all thermo-regulatory responses”. The “time for CBT drop” value ([1]; IP, above 0.25 mg/gbw, chamber at 4° C., CBT to 15±1.0° C.) was 60 ± 10 min, the “CBT above ambient environmental temperature (AET) during SA” value ([1]; mice in SA) was 1-2 °C and the “dose that can induce deep torpor” value ([1]; mouse) was 5-7.5 mg/g body weight. The “ED50 for inducing torpor” value [1, 9] was “approximately 0.15 mg/gram body weight”, the “ED100 for inducing torpor” value [1, 9] was “approximately 0.25 mg/g body weight” and the “body weight after SA” value ([1]; mouse, in vivo) was “no significant difference in body weight”. The “food intake after SA” value ([1]; mouse, in vivo) was “moderately lower food intake”, the “respiration rate in SA” value ([1]; normal about 120 breaths per min, CBT below 17° C.) was “reduced by at least two-thirds” and the heart rate [2] was “slows the heart rate”. The blood glucose levels [3] was “reduce the blood glucose levels”, the “ATP level after a second injection” value [4] was “steep drop in ATP level” and the body weight [5] was “weight loss”. The “satiety / food intake” value [5] was “lower satiety”, the “serum glucose higher than control animals” value ([6]; 2-3 h into SA, control CBT 37° C.) was “about 60%” and the “serum blood glucose below control animals” value ([6]; at spontaneous arousal) was 40%. The “procolipase expression in liver” value ([6]; mice that had aroused spontaneously, Northern blot) was “robust level of procolipase expression”.

With `Nc1ncnc2c1ncn2[C@@H]1O[C@H](COP(=O)(O)OP(=O)(O)O)[C@@H](O)[C@H]1O` [ADP, adenosine 5′-diphosphate] the “mClps expression in the liver” value (mClps) was “did not induce mClps expression”.

For `NC(=O)c1ncn([C@@H]2O[C@H](CO)[C@@H](O)[C@H]2O)c1N` [AICAR, 5-aminoimidazole-4-carboxamide ribonucleoside], the fatty acid oxidation (AMPK) is given as “increase fatty acid oxidation”.

In the case of `Nc1ncnc2c1ncn2[C@@H]1O[C@H](COP(=O)(O)OP(=O)(O)OP(=O)(O)O)[C@@H](O)[C@H]1O` [ATP], the “mClps expression in the liver” value (mClps) is reported as “did not induce mClps expression”.

With `CCNC(=O)[C@H]1O[C@@H](n2cnc3c(N)ncnc32)[C@H](O)[C@@H]1O` [NECA] the “mClps expression in the liver” value (mClps) was “did not induce colipase expression”.

For `Nc1ncnc2c1ncn2[C@@H]1O[C@H](CO)[C@@H](O)[C@H]1O` [adenosine], the “mClps expression in the liver” value (mClps) is given as “induced mClps expression” and the water solubility [7] is given as “very low”.

In the case of `Nc1ncnc2c1ncn2[C@@H]1O[C@@H]2COP(=O)(O)O[C@H]2[C@H]1O` [c-AMP], the “mClps expression in the liver” value (mClps) is reported as “did not induce mClps expression”.
